Data taken from ChEMBL document CHEMBL4622870, “Design, synthesis and evaluation of hydrazine and acyl hydrazone derivatives of 5-pyrrolidin-2-one as antifungal agents” (Bioorg Med Chem Lett, 2020).

Tests used:
Fusarium solani [1] = assay: Antifungal activity against Fusarium solani assessed as fungal growth inhibition at 100 ug/ml by micro-dilution method relative to control; type: functional; settings: read-out: GI
Paecilomyces variotii [2] = assay: Antifungal activity against Paecilomyces variotii assessed as fungal growth inhibition at 100 ug/ml by micro-dilution method relative to control; type: functional; settings: read-out: GI
Penicillium ochrochloron [3] = assay: Antifungal activity against Penicillium ochrochloron assessed as fungal growth inhibition at 100 ug/ml by micro-dilution method relative to control; type: functional; settings: read-out: GI
Aspergillus oryzae [4] = assay: Antifungal activity against Aspergillus oryzae assessed as fungal growth inhibition at 100 ug/ml by micro-dilution method relative to control; type: functional; settings: read-out: GI
Botrytis cinerea = assay: Antifungal activity against Botrytis cinerea assessed as fungal growth inhibition at 100 ug/ml by micro-dilution method relative to control; type: functional; settings: read-out: GI
Alternaria alternata [5] = assay: Antifungal activity against Alternaria alternata assessed as fungal growth inhibition at 100 ug/ml by micro-dilution method relative to control; type: functional; settings: read-out: GI
[6] = tested on: Cladosporium cladosporioides; assay: Antifungal activity against Cladosporium cladosporioides assessed as fungal growth inhibition at 100 ug/ml by micro-dilution method relative to control; type: functional; settings: read-out: GI
Sclerotinia sclerotiorum [7] = assay: Antifungal activity against Sclerotinia sclerotiorum assessed as fungal growth inhibition at 100 ug/ml by micro-dilution method relative to control; type: functional; settings: read-out: GI
Geotrichum candidum [8] = assay: Antifungal activity against Geotrichum candidum assessed as fungal growth inhibition at 100 ug/ml by micro-dilution method relative to control; type: functional; settings: read-out: GI
Pichia kudriavzevii = assay: Antifungal activity against Candida krusei assessed as fungal growth inhibition at 100 ug/ml by micro-dilution method relative to control; type: functional; settings: read-out: GI
Kluyveromyces marxianus [9] = assay: Antifungal activity against Candida pseudotropicalis assessed as fungal growth inhibition at 100 ug/ml by micro-dilution method relative to control; type: functional; settings: read-out: GI
Candida tropicalis [10] = assay: Antifungal activity against Candida tropicalis assessed as fungal growth inhibition at 100 ug/ml by micro-dilution method relative to control; type: functional; settings: read-out: GI
Fusarium solani [11] = assay: Antifungal activity against Fusarium solani assessed as fungal growth inhibition by micro-dilution method; type: functional
Geotrichum candidum [12] = assay: Antifungal activity against Geotrichum candidum assessed as fungal growth inhibition by micro-dilution method; type: functional
HEK293 = assay: Cytotoxicity against human HEK293 cells assessed as effect on cell viability measured after 72 hrs by MTS assay; type: cell-based; settings: hek293, 72 h
Geotrichum candidum [13] = assay: Antifungal activity against Geotrichum candidum assessed as fungal growth inhibition at 50 ug/ml by micro-dilution method relative to control; type: functional; settings: read-out: GI
Penicillium ochrochloron [14] = assay: Antifungal activity against Penicillium ochrochloron assessed as fungal growth inhibition by micro-dilution method; type: functional
[15] = tested on: Cladosporium cladosporioides; assay: Antifungal activity against Cladosporium cladosporioides assessed as fungal growth inhibition by micro-dilution method; type: functional
Candida tropicalis [16] = assay: Antifungal activity against Candida tropicalis assessed as fungal growth inhibition by micro-dilution method; type: functional
Paecilomyces variotii [17] = assay: Antifungal activity against Paecilomyces variotii assessed as fungal growth inhibition by micro-dilution method; type: functional
Aspergillus oryzae [18] = assay: Antifungal activity against Aspergillus oryzae assessed as fungal growth inhibition by micro-dilution method; type: functional
Alternaria alternata [19] = assay: Antifungal activity against Alternaria alternata assessed as fungal growth inhibition by micro-dilution method; type: functional
Sclerotinia sclerotiorum [20] = assay: Antifungal activity against Sclerotinia sclerotiorum assessed as fungal growth inhibition by micro-dilution method; type: functional
Kluyveromyces marxianus [21] = assay: Antifungal activity against Candida pseudotropicalis assessed as fungal growth inhibition by micro-dilution method; type: functional

| Structure (SMILES) | MIC50 (Fusarium solani [11]) | MIC50 (Geotrichum candidum [12]) | MIC50 (Penicillium ochrochloron [14]) | inhibition of growth at 100 µg/mL (Fusarium solani [1]) | inhibition of growth at 100 µg/mL (Paecilomyces variotii [2]) | inhibition of growth at 100 µg/mL (Penicillium ochrochloron [3]) | inhibition of growth at 100 µg/mL (Aspergillus oryzae [4]) | inhibition of growth at 100 µg/mL (Botrytis cinerea) | inhibition of growth at 100 µg/mL (Alternaria alternata [5]) | inhibition of growth at 100 µg/mL [6] | inhibition of growth at 100 µg/mL (Sclerotinia sclerotiorum [7]) | inhibition of growth at 100 µg/mL (Geotrichum candidum [8]) | inhibition of growth at 100 µg/mL (Pichia kudriavzevii) | inhibition of growth at 100 µg/mL (Kluyveromyces marxianus [9]) | inhibition of growth at 100 µg/mL (Candida tropicalis [10]) | Activity (HEK293) | other results |
| --- | --- | --- | --- | --- | --- | --- | --- | --- | --- | --- | --- | --- | --- | --- | --- | --- | --- |
| O=C1CC[C@@H](C(=O)N/N=C/c2ccc(CO)o2)N1 | > 75 µg/mL | > 75 µg/mL | – | 72% | 45% | 28% | 0% | 0% | 42% | 0% | 0% | 88% | 66% | 28% | 38% | Non-Toxic | inhibition of growth at 50 µg/mL (Geotrichum candidum [13]): < 10% |
| O=C1CC[C@@H](C(=O)N/N=C/c2ccccc2[N+](=O)[O-])N1 | 51.6 µg/mL | – | – | 100% | 3% | 13% | 32% | 27% | 0% | 0% | 21% | 50% | 0% | 35% | 19% | Non-Toxic | – |
| CN(NC1CCC(=O)N1)c1ccccc1 (racemic) | 31 µg/mL | – | – | 100% | 70% | 56% | 45% | 20% | 0% | 42% | 46% | 18% | 20% | 61% | 20% | Non-Toxic | MIC50 (Paecilomyces variotii [17]): 14.8 µg/mL |
| O=C1CCC(NNc2ccccc2)N1 (racemic) | 18.5 µg/mL | – | 4.4 µg/mL | 100% | 78% | 90% | 71% | 62% | 82% | 44% | 76% | 0% | 35% | 96% | 89% | Non-Toxic | MIC50 (Paecilomyces variotii [17]): 7.8 µg/mL; MIC50 (Aspergillus oryzae [18]): 43.4 µg/mL; MIC50 (Alternaria alternata [19]): 3.6 µg/mL; MIC50 (Sclerotinia sclerotiorum [20]): 23 µg/mL; MIC50 (Kluyveromyces marxianus [21]): 0.6 µg/mL; MIC50 (Candida tropicalis [16]): 58.5 µg/mL |
| O=C1CCC(NNc2ccc(C(F)(F)F)cc2)N1 (racemic) | 11.7 µg/mL | – | – | 100% | 82% | 35% | 37% | 39% | 2% | 81% | 40% | 22% | 51% | 38% | 51% | Non-Toxic | MIC50 (Paecilomyces variotii [17]): 2 µg/mL; MIC50 [15]: 3.4 µg/mL |
| O=C1CCC(NNc2cc(F)ccc2F)N1 (racemic) | 24.5 µg/mL | – | 21.1 µg/mL | 95% | 17% | 73% | 0% | 0% | 72% | 29% | 28% | 25% | 20% | 65% | 62% | Non-Toxic | MIC50 (Alternaria alternata [19]): 18.6 µg/mL |
| Cc1cc(O)no1 [HYMEXAZOL] | 15.6 µg/mL | > 50 µg/mL | 62.2 µg/mL | – | – | – | – | – | – | – | – | – | – | – | – | – | MIC50 (Paecilomyces variotii [17]): 57.2 µg/mL; MIC50 (Aspergillus oryzae [18]): 45.7 µg/mL; MIC50 (Alternaria alternata [19]): 38.3 µg/mL; MIC50 [15]: 28.9 µg/mL; MIC50 (Sclerotinia sclerotiorum [20]): 26.5 µg/mL |
| CC(=O)N1CCN(c2ccc(OCC3COC(Cn4ccnc4)(c4ccc(Cl)cc4Cl)O3)cc2)CC1 (stereo not given) [KETOCONAZOLE] | – | 1.5 µg/mL | – | – | – | – | – | – | – | – | – | – | – | – | – | – | MIC50 (Kluyveromyces marxianus [21]): 9.6 µg/mL; MIC50 (Candida tropicalis [16]): 15.9 µg/mL |

Further lines, with some results ahead:

| MIC50 (Fusarium solani [11]) | MIC50 (Geotrichum candidum [12]) | MIC50 (Penicillium ochrochloron [14]) | Structure (SMILES) | inhibition of growth at 100 µg/mL (Fusarium solani [1]) | inhibition of growth at 100 µg/mL (Paecilomyces variotii [2]) | inhibition of growth at 100 µg/mL (Penicillium ochrochloron [3]) | inhibition of growth at 100 µg/mL (Aspergillus oryzae [4]) | inhibition of growth at 100 µg/mL (Botrytis cinerea) | inhibition of growth at 100 µg/mL (Alternaria alternata [5]) | inhibition of growth at 100 µg/mL [6] | inhibition of growth at 100 µg/mL (Sclerotinia sclerotiorum [7]) | inhibition of growth at 100 µg/mL (Geotrichum candidum [8]) | inhibition of growth at 100 µg/mL (Pichia kudriavzevii) | inhibition of growth at 100 µg/mL (Kluyveromyces marxianus [9]) | inhibition of growth at 100 µg/mL (Candida tropicalis [10]) | Activity (HEK293) | other results |
| --- | --- | --- | --- | --- | --- | --- | --- | --- | --- | --- | --- | --- | --- | --- | --- | --- | --- |
| – | 1.8 µg/mL | 15.4 µg/mL | O=C1CC[C@@H](C(=O)N/N=C/c2ccc(Cl)cc2)N1 | 61% | 27% | 92% | 0% | 34% | 20% | 98% | 58% | 92% | 26% | 50% | 47% | Non-Toxic | MIC50 [15]: 23.9 µg/mL |
| – | 38.4 µg/mL | – | O=C1CC[C@@H](C(=O)N/N=C/c2ccc(Cl)nc2)N1 | 23% | 42% | 62% | 0% | 0% | 0% | 33% | 0% | 72% | 2% | 10% | 0% | Non-Toxic | – |
| 6.5 µg/mL | 5.9 µg/mL | 5.3 µg/mL | O=C1CC[C@@H](C(=O)N/N=C/c2ccc(Br)cc2)N1 | 100% | 0% | 77% | 43% | 40% | 0% | 72% | 37% | 100% | 0% | 2% | 92% | Non-Toxic | MIC50 [15]: 53 µg/mL; MIC50 (Candida tropicalis [16]): > 75 µg/mL |
| – | > 75 µg/mL | – | O=C1CC[C@@H](C(=O)N/N=C/c2ccccc2)N1 | 59% | 46% | 25% | 0% | 0% | 20% | 12% | 0% | 83% | 40% | 7% | 15% | Non-Toxic | inhibition of growth at 50 µg/mL (Geotrichum candidum [13]): < 10% |
| 59.1 µg/mL | – | – | O=C1CC[C@@H](C(=O)N/N=C/c2ccc([N+](=O)[O-])cc2)N1 | 100% | 20% | 14% | 0% | 0% | 30% | 40% | 9% | 30% | 22% | 38% | 42% | Non-Toxic | – |
| 102 µg/mL | – | – | Cc1ccc(/C=N/NC(=O)[C@@H]2CCC(=O)N2)cc1 | 94% | 35% | 0% | 11% | 0% | 0% | 5% | 0% | 28% | 28% | 32% | 33% | Non-Toxic | – |
